Source: patent US20240043410A1, “SULPHAMOYL UREA DERIVATIVES CONTAINING ALKYL-OXACYCLOALKYL MOIETY AND USES THEREOF” (NodThera Limited, priority 2020, published 2024)
Values after ≈ are worked out from the molar mass of the structure shown. Counter-ions that a name gives are not always drawn.

Assays:
[1] = tested on: IL-1β release upon NLRP3 activation in peripheral blood mononuclear cells (PBMC); test: PBMC IC50 Determination Assay; type: cell-based; conditions: Homo sapiens; LPS-primed PBMC stimulated with ATP (5 mM) or nigericin (10 μM); IL-1β by ELISA (Protocol A) or HTRF (Protocol B); salts tested
Description: PBMC IC50 Determination Assay. The compounds of the present disclosure were tested for their inhibitory activity against IL-1β release upon NLRP3 activation in peripheral blood mononuclear cells (PBMC).
Protocol A. PBMC were isolated from buffy coats by density gradient centrifugation on Histopaque-1077 (Sigma, cat no. 10771). Isolated cells were seeded into the wells of a 96-well plate and incubated for 3 h with lipopolysaccharide (LPS). Following medium exchange, the compounds of the present disclosure were added (a single compound per well) and the cells were incubated for 30 min. Next, the cells were stimulated either with ATP (5 mM) or nigericin (10 μM) for 1 h and the cell culture media from the wells were collected for further analysis. The release of IL1-β into the media was determined by a quantitative detection of IL-1β in the media using an IL-1β enzyme-linked immunosorbent assay (ELISA) Ready-SET-Go!, eBioscience cat. No. 88-7261-88. Briefly, in a first step, high affinity binding plates (Corning, Costar 9018 or NUNC Maxisorp Cat No. 44-2404) were coated overnight at 4° C. with specific capture antibody included in the kit (anti-human IL-1β ref. 14-7018-68). Subsequently, plates were blocked with blocking buffer for 1 h at room temperature (rt) and after washing with a buffer (PBS with 0.05% Tween-20) incubated with protein standard and culture media. After 2 h of incubation at rt, plates were washed and incubated with biotinylated detection antibody included in the kit (anti-human IL-1β Biotin ref. 33-7110-68) for 1 h at rt. Plates were washed and incubated with HRP-streptavidin for 30 min at rt and washed again. The signal was developed after addition of 3,3′,5,5′-tetramethylbenzidine-peroxidase (TMB) until colour appeared and the reaction was stopped by 2 M H2SO4. A microplate spectrophotometer (BioTek) was used to detect signals with 450 nm. The detection range of IL-1β 3 ELISA was 2-150 ng/mL.
Protocol B. PBMC were isolated from buffy coats by density gradient centrifugation on Histopaque-1077 (Sigma, cat no. 10771). Isolated cells were seeded into the wells (280,000 cells/well) of a 96-well plate and incubated for 3 h with lipopolysaccharide (LPS, 1 μg/mL diluted 1000× from a 1 mg/mL stock solution). The compounds of the present disclosure were added (a single compound per well) and the cells were incubated for 30 min. Next, the cells were stimulated with ATP (5 mM final concentration diluted 20× from a 100 mM stock solution) for 1 h and the cell culture media from the wells were collected for further analysis. The release of IL-1β into the media was determined by quantitative detection of IL-1 in the media using HTRF®, CisBio cat. No. 62HIL1BPEH. Briefly, cell culture supernatant were dispensed directly into the assay plate containing antibodies labelled with the HTRF® donor and acceptor. A microplate spectrophotometer (BMG) was used to detect signals at 655 nm and 620 nm. The detection range of IL-1β HTRF® was […].

[2] = Thermodynamic (equilibrium) solubility assay; type: physicochemical; conditions: aqueous buffer, thermodynamic from solid; 50 mM pH 7.4 phosphate buffer, 24 hours at room temperature
Description: Thermodynamic Solubility Studies. The compounds of the present disclosure were tested in an equilibrium solubility assay.
An appropriate amount of test and control compounds were weighed into lower chambers of Whatman Mini-UniPrep vials. To these were added 50 mM pH 7.4 phosphate buffer (450 μL) to get a super-saturated suspension. The samples were vortexed for at least 2 minutes. The Whatman Mini-UniPrep vials were shaken on a shaker for 24 hours at room temperature at 800 rpm. The vials were centrifuged for 20 minutes (eg. 4000 rpm). Samples were compressed to prepare filtrates for injection into HPLC system and the concentration calculated with a standard curve. […] As shown in the table, compounds of the present disclosure may display improved properties (e.g., over the compounds in the prior art), such as enhanced potency, solubility, membrane permeability and transporter efflux.

PAMPA permeability assay = type: in vitro ADME; conditions: 10 μM donor, PBS, 4 hours at room temperature, lecithin/dodecane membrane
Description: PAMPA Studies. The compounds of the present disclosure were tested in a PAMPA permeability assay to assess passive transcellular permeation.
Protocol. 0.2 mM working solution was prepared by diluting 10 mM stock solution with DMSO. 10 μM donor solution (5% DMSO) was prepared by diluting 20 μL of working solution with 380 μL PBS. 150 μL of 10 μM donor solutions to each well of the donor plate, whose PVDF membrane was precoated with 5 μL of 1% lecithin/dodecane mixture. Duplicates were prepared. 300 μL of PBS was added to each well of the PTFE acceptor plate. The donor plate and acceptor plate were combined and incubated for 4 hours at room temperature with shaking at 300 rpm. Preparation of TO sample: 20 μL donor solution was transferred to new well followed by the addition of 250 μL PBS (DF: 13.5), 130 μL ACN (containing internal standard) as TO sample. Preparation of acceptor sample: The plate was removed from incubator. 270 μL solution was transferred from each acceptor well and mixed with 130 μL ACN (containing internal standard) as acceptor sample. Preparation of donor sample: 20 μL solution was transferred from each donor well and mixed with 250 μL PBS (DF: 13.5), 130 μL ACN (containing internal standard) as donor sample. Acceptor samples and donor samples were all analysed by LC-MS/MS.
The measured PAMPA permeability values of compounds of the present disclosure are shown in Table B below (“$$$$” means >10 nm/“$$$” means ≥3 and <10 nm/s; “$$” means ≥1 and <3 nm/s; “$” means <1 nm/s).

[3] = tested on: P-glycoprotein (P-gp) or breast cancer resistance protein (BCRP); test: BCRP and P-gp Caco-2 permeability assay; type: in vitro ADME; conditions: efflux ratio, Caco-2 cells
Description: BCRP and P-gp Caco-2 Studies. The compounds of the present disclosure were tested in a Caco-2 permeability assay to assess whether they are actively transported out of cells by the efflux proteins, P-glycoprotein (P-gp) or breast cancer resistance protein (BCRP).
Caco-2 cells were used between passage numbers 40-60. Cells were seeded onto Millipore Multiscreen Transwell plates at […]. The cells were cultured in DMEM and media was changed every two or three days. On Day 18-22 the BCRP inhibition study was performed. Cell culture and assay incubations were carried out at 37° C. in an atmosphere of 5% CO2 with a relative humidity of 95%. On the day of the assay, the monolayers were prepared by rinsing both apical and basolateral surfaces twice with warmed (37° C.) transport buffer (Hanks Balanced Salt Solution [HBSS] containing 25 mM HEPES and 4.45 mM glucose, pH 7.4). Cells were then incubated with transport buffer containing test compound or positive control inhibitor (novobiocin) in both apical and basolateral compartments for 30 minutes at 37° C. For the inhibition studies a P-gp inhibitor or BCRP inhibitor was included on both sides of the monolayer for the equilibration period. The dosing solutions were prepared by diluting estrone 3-sulfate and test compound where applicable to give a final estrone 3-sulfate concentration of 1 μM (final DMSO concentration of 1% v/v). The fluorescent integrity marker lucifer yellow was prepared in receiver solutions in vehicle or test compound-containing transport buffer. After pre-incubation, the transport buffer was removed from both apical and basolateral compartments and replaced with the appropriate dosing or receiver solution. For assessment of B-A permeability, transport buffer was removed from the basolateral companion plate and replaced with dosing solution. Fresh transport buffer containing lucifer yellow and test compound where applicable (final DMSO concentration 1% v/v) was added to the apical compartment insert, which was then placed into the companion plate. After a 90-minute incubation the apical compartment inserts and the companion plates were separated and compartments sampled for analysis. Seven concentrations of compound (up to 100 μM) were assessed in addition to a vehicle control (0 μM). A triplicate determination of each concentration was performed. The positive control inhibitor was evaluated in parallel. [^3H]-estrone 3-sulfate was quantified by liquid scintillation counting to give disintegrations per minute (dpm). The integrity of the monolayer throughout the experiment was checked by monitoring lucifer yellow permeation using fluorimetric analysis. Corrected B-A apparent permeability (Papp) of probe substrate was calculated by subtracting its mean passive Papp determined in the presence of the highest concentration of positive control inhibitor (giving 100% transporter inhibition). The mean corrected B-A Papp from vehicle wells (0 μM test compound) was defined as 100% transport activity and this value was then used to calculate the percentage control transport activity for all other test compound concentrations. Percentage control transport activity was plotted against test compound concentration and fitted to calculate an IC50 value.
The efflux ratio (ER) values of compounds of the present disclosure are shown in Table B below (“****” means <3; “***” 3≥ and <10; “**” means ≥10 and <30; “*” means ≥30).

solubility thermodynamic at 24 h [2] [µg/mL]	PAMPA Pe (PAMPA permeability assay)	Caco-2 ER [3]	Structure (SMILES)	IC50 [1] [nM]
–	–	–	Cn1cc(N(C[C@@H]2C[C@H](O)CO2)S(=O)(=O)NC(=O)Nc2c3c(cc4c2CCC4)CCC3)cn1 (relative stereo) [Compound 2A, Sodium ((1,2,3,5,6,7-hexahydro-s-indacen-4-yl)carbamoyl)(N-((cis-4-hydroxy-tetrahydrofuran-2-yl)methyl)-N-(1-methyl-1H-pyrazol-4-yl)sulfamoyl)amide]	< 100
3000 to 10000	$$ (“$$” means ≥1 and <3 nm/s)	**** (“****” means <3)	Cn1cc(N(C[C@@H]2CCCO2)S(=O)(=O)NC(=O)Nc2c3c(cc4c2CCC4)CCC3)cn1 [Compound 1A, Sodium [(1,2,3,5,6,7-hexahydro-s-indacen-4-yl)carbamoyl][(1-methyl-1H-pyrazol-4-yl)({[(2S)-oxolan-2-yl]methyl})sulfamoyl]azanide]	< 100
1000 to 3000	$$ (“$$” means ≥1 and <3 nm/s)	**** (“****” means <3)	Cn1cc(N(C[C@H]2CCCO2)S(=O)(=O)NC(=O)Nc2c3c(cc4c2CCC4)CCC3)cn1 [Compound 1B, Sodium [(1,2,3,5,6,7-hexahydro-s-indacen-4-yl)carbamoyl][(1-methyl-1H-pyrazol-4-yl)({[(2R)-oxolan-2-yl]methyl})sulfamoyl]azanide]	< 100
–	–	–	Cn1cc(N(CC2CCCO2)S(=O)(=O)NC(=O)Nc2c3c(cc4c2CCC4)CCC3)cn1 (stereo not drawn) [Compound 1]	< 100
–	–	–	Cn1cc(N(C[C@H]2C[C@H](O)CO2)S(=O)(=O)NC(=O)Nc2c3c(cc4c2CCC4)CCC3)cn1 [Compound 2B, 1-(1,2,3,5,6,7-Hexahydro-s-indacen-4-yl)-3-[[(2R,4S)-4-hydroxytetrahydro-furan-2-yl]methyl-(1-methylpyrazol-4-yl)sulfamoyl]urea, sodium salt]	100 to 1000
1000 to 3000 (≈ 2.18 to 6.53 mM)	$ (“$” means <1 nm/s)	** (“**” means ≥10 and <30)	Cn1cc(N(CC2CCOC2)S(=O)(=O)NC(=O)Nc2c3c(cc4c2CCC4)CCC3)cn1 (stereo not drawn) [Compound 4]	100 to 1000
3000 to 10000	$$ (“$$” means ≥1 and <3 nm/s)	*** (“***” 3≥ and <10)	Cn1cc(N(CCC2CCCO2)S(=O)(=O)NC(=O)Nc2c3c(cc4c2CCC4)CCC3)cn1 (stereo not drawn) [Compound 5, Sodium [(1,2,3,5,6,7-hexahydro-s-indacen-4-yl)carbamoyl][(1-methyl-1H-pyrazol-4-yl)[2-(oxolan-2-yl)ethyl]sulfamoyl]azanide]	100 to 1000
3000 to 10000	$$$$ (“$$$$” means >10 nm/)	**** (“****” means <3)	Cn1cc(N(CC2CCCCO2)S(=O)(=O)NC(=O)Nc2c3c(cc4c2CCC4)CCC3)cn1 (stereo not drawn) [Compound 6, Sodium [(1,2,3,5,6,7-hexahydro-s-indacen-4-yl)carbamoyl][(1-methyl-1H-pyrazol-4-yl)[(oxan-2-yl)methyl]sulfamoyl]azanide]	< 100
–	–	–	O=C(Nc1c2c(cc3c1CCC3)CCC2)NS(=O)(=O)N(C[C@@H]1CCCO1)c1cn[nH]c1 [Compound 8A, 1-(1,2,3,5,6,7-hexahydro-s-indacen-4-yl)-3-[1H-pyrazol-4-yl-[[(2S)-tetrahydrofuran-2-yl]methyl]sulfamoyl]urea]	< 100
